The supplement of paper PMC8149375
Each block holds one compound with its values, some of them ahead of it.

Key:
Conditions in all cases: treatment: drug + dasatinib (fixed dose, not stated); 5 days
CAKI-1 [1] = test: GI50 of drug in presence of dasatinib; higher = less potent
Procedure: (§1)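 Primary HTS combination arm: 8 RCC cell lines treated with 8 doses (up to 10 uM) of each library drug plus a fixed dose of dasatinib (dose not stated) for 5 days; viability read by CellTiter-Glo and normalised to DMSO. GI50 was fitted with XLfit, AUC is the area under the dose-response curve, and minimum viability is the lowest fraction of DMSO viability across doses.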

SN12C [2] = test: as above
Procedure: as §1

786-O [3] = test: as above
Procedure: as §1

UO-31 [4] = test: as above
Procedure: as §1

ACHN [5] = test: as above
Procedure: as §1

TK-10 [6] = test: minimum viability across doses, drug + dasatinib, relative to DMSO (fraction); higher = less growth inhibition
Procedure: as §1

CAKI-1 [7] = test: as above
Procedure: as §1

SN12C [8] = test: as above
Procedure: as §1

786-O [9] = test: as above
Procedure: as §1

UO-31 [10] = test: as above
Procedure: as §1

769-P [11] = test: as above
Procedure: as §1

ACHN [12] = test: as above
Procedure: as §1

A498 [13] = test: as above
Procedure: as §1

TK-10 [14] = test: AUC of dose-response viability curve, drug + dasatinib, normalised to DMSO (arbitrary (AUC of normalised viability)); higher = less growth inhibition
Procedure: as §1

CAKI-1 [15] = test: as above
Procedure: as §1

SN12C [16] = test: as above
Procedure: as §1

786-O [17] = test: as above
Procedure: as §1

UO-31 [18] = test: as above
Procedure: as §1

769-P [19] = test: as above
Procedure: as §1

ACHN [20] = test: as above
Procedure: as §1

A498 [21] = test: as above
Procedure: as §1

TK-10 [22] = test: GI50 of drug in presence of dasatinib; higher = less potent
Procedure: as §1

769-P [23] = test: as above
Procedure: as §1

A498 [24] = test: as above
Procedure: as §1

Compound: CO[C@H]1C[C@H]2CC[C@@H](C)[C@@](O)(O2)C(=O)C(=O)N2CCCC[C@H]2C(=O)O[C@H]([C@H](C)C[C@@H]2CC[C@H](OP(C)(C)=O)[C@H](OC)C2)CC(=O)[C@H](C)/C=C(\C)[C@@H](O)[C@@H](OC)C(=O)[C@H](C)C[C@H](C)/C=C/C=C/C=C/1C (stereo in doubt) [Deforolimus (Ridaforolimus)] + Cc1nc(Nc2ncc(C(=O)Nc3c(C)cccc3Cl)s2)cc(N2CCN(CCO)CC2)n1 [dasatinib]
GI50 of drug (CAKI-1 [1]): 0.0168 µM
GI50 of drug (SN12C [2]): 0.0256 µM
GI50 of drug (786-O [3]): < 0.003 µM
GI50 of drug (UO-31 [4]): 0.0286 µM
GI50 of drug (ACHN [5]): 0.00436 µM
minimum viability across doses (TK-10 [6]): 0.4
minimum viability across doses (CAKI-1 [7]): 0.295
minimum viability across doses (SN12C [8]): 0.407
minimum viability across doses (786-O [9]): 0.287
minimum viability across doses (UO-31 [10]): 0.257
minimum viability across doses (769-P [11]): 0.397
minimum viability across doses (ACHN [12]): 0.263
minimum viability across doses (A498 [13]): 0.493
AUC of dose-response viability curve (TK-10 [14]): 1.98
AUC of dose-response viability curve (CAKI-1 [15]): 1.38
AUC of dose-response viability curve (SN12C [16]): 1.67
AUC of dose-response viability curve (786-O [17]): 1.11
AUC of dose-response viability curve (UO-31 [18]): 1.39
AUC of dose-response viability curve (769-P [19]): 1.71
AUC of dose-response viability curve (ACHN [20]): 1.18
AUC of dose-response viability curve (A498 [21]): 1.95

Compound: CCN(CCO)CCCOc1ccc2c(Nc3cc(CC(=O)Nc4cccc(F)c4)n[nH]3)ncnc2c1 [Barasertib (AZD1152-HQPA)] + Cc1nc(Nc2ncc(C(=O)Nc3c(C)cccc3Cl)s2)cc(N2CCN(CCO)CC2)n1 [dasatinib]
GI50 of drug (TK-10 [22]): > 10 µM
GI50 of drug (CAKI-1 [1]): 0.678 µM
GI50 of drug (SN12C [2]): > 10 µM
GI50 of drug (786-O [3]): 0.113 µM
GI50 of drug (UO-31 [4]): > 10 µM
GI50 of drug (769-P [23]): 1.23 µM
GI50 of drug (A498 [24]): > 10 µM
minimum viability across doses (TK-10 [6]): 0.685
minimum viability across doses (CAKI-1 [7]): 0.402
minimum viability across doses (SN12C [8]): 0.628
minimum viability across doses (786-O [9]): 0.157
minimum viability across doses (UO-31 [10]): 0.842
minimum viability across doses (769-P [11]): 0.346
minimum viability across doses (ACHN [12]): 0.417
minimum viability across doses (A498 [13]): 0.841
AUC of dose-response viability curve (TK-10 [14]): 2.65
AUC of dose-response viability curve (CAKI-1 [15]): 2.04
AUC of dose-response viability curve (SN12C [16]): 2.41
AUC of dose-response viability curve (786-O [17]): 1.61
AUC of dose-response viability curve (UO-31 [18]): 3.22
AUC of dose-response viability curve (769-P [19]): 2.09
AUC of dose-response viability curve (ACHN [20]): 1.83
AUC of dose-response viability curve (A498 [21]): 3.31

Compound: CO[C@H]1C[C@@H]2CC[C@@H](C)[C@@](O)(O2)C(=O)C(=O)N2CCCC[C@H]2C(=O)O[C@H]([C@H](C)C[C@@H]2CC[C@@H](OCCO)[C@H](OC)C2)CC(=O)[C@H](C)/C=C(\C)[C@@H](O)[C@@H](OC)C(=O)[C@H](C)C[C@H](C)/C=C/C=C/C=C/1C [Everolimus (RAD001)] + Cc1nc(Nc2ncc(C(=O)Nc3c(C)cccc3Cl)s2)cc(N2CCN(CCO)CC2)n1 [dasatinib]
GI50 of drug (CAKI-1 [1]): 0.117 µM
GI50 of drug (SN12C [2]): > 10 µM
GI50 of drug (786-O [3]): < 0.003 µM
GI50 of drug (UO-31 [4]): 0.231 µM
GI50 of drug (ACHN [5]): < 0.003 µM
GI50 of drug (A498 [24]): > 10 µM
minimum viability across doses (TK-10 [6]): 0.426
minimum viability across doses (CAKI-1 [7]): 0.353
minimum viability across doses (SN12C [8]): 0.489
minimum viability across doses (786-O [9]): 0.253
minimum viability across doses (UO-31 [10]): 0.396
minimum viability across doses (769-P [11]): 0.416
minimum viability across doses (ACHN [12]): 0.225
minimum viability across doses (A498 [13]): 0.645
AUC of dose-response viability curve (TK-10 [14]): 1.95
AUC of dose-response viability curve (CAKI-1 [15]): 1.7
AUC of dose-response viability curve (SN12C [16]): 1.93
AUC of dose-response viability curve (786-O [17]): 1.06
AUC of dose-response viability curve (UO-31 [18]): 1.79
AUC of dose-response viability curve (769-P [19]): 1.75
AUC of dose-response viability curve (ACHN [20]): 1.06
AUC of dose-response viability curve (A498 [21]): 2.43

Compound: CCCNC(=O)Nc1ccc(Oc2ncnc3cc(OC)c(OC)cc23)cc1Cl [KRN 633] + Cc1nc(Nc2ncc(C(=O)Nc3c(C)cccc3Cl)s2)cc(N2CCN(CCO)CC2)n1 [dasatinib]
GI50 of drug (TK-10 [22]): > 10 µM
GI50 of drug (CAKI-1 [1]): > 10 µM
GI50 of drug (SN12C [2]): > 10 µM
GI50 of drug (786-O [3]): > 10 µM
GI50 of drug (UO-31 [4]): > 10 µM
GI50 of drug (769-P [23]): > 10 µM
GI50 of drug (A498 [24]): > 10 µM
minimum viability across doses (TK-10 [6]): 0.613
minimum viability across doses (CAKI-1 [7]): 0.556
minimum viability across doses (SN12C [8]): 0.612
minimum viability across doses (786-O [9]): 0.468
minimum viability across doses (UO-31 [10]): 0.889
minimum viability across doses (769-P [11]): 0.511
minimum viability across doses (ACHN [12]): 0.421
minimum viability across doses (A498 [13]): 0.847
AUC of dose-response viability curve (TK-10 [14]): 2.5
AUC of dose-response viability curve (CAKI-1 [15]): 2.31
AUC of dose-response viability curve (SN12C [16]): 2.51
AUC of dose-response viability curve (786-O [17]): 2.06
AUC of dose-response viability curve (UO-31 [18]): 3.62
AUC of dose-response viability curve (769-P [19]): 2.44
AUC of dose-response viability curve (ACHN [20]): 1.76
AUC of dose-response viability curve (A498 [21]): 3.47

Compound: CN1C(=O)C(Cc2c[nH]c3ccccc23)NC1=S (configuration not stated) [Necrostatin-1] + Cc1nc(Nc2ncc(C(=O)Nc3c(C)cccc3Cl)s2)cc(N2CCN(CCO)CC2)n1 [dasatinib]
GI50 of drug (TK-10 [22]): > 10 µM
GI50 of drug (CAKI-1 [1]): > 10 µM
GI50 of drug (SN12C [2]): > 10 µM
GI50 of drug (786-O [3]): > 10 µM
GI50 of drug (UO-31 [4]): > 10 µM
GI50 of drug (769-P [23]): > 10 µM
GI50 of drug (A498 [24]): > 10 µM
minimum viability across doses (TK-10 [6]): 0.639
minimum viability across doses (CAKI-1 [7]): 0.535
minimum viability across doses (SN12C [8]): 0.7
minimum viability across doses (786-O [9]): 0.628
minimum viability across doses (UO-31 [10]): 1.06
minimum viability across doses (769-P [11]): 0.71
minimum viability across doses (ACHN [12]): 0.492
minimum viability across doses (A498 [13]): 0.963
AUC of dose-response viability curve (TK-10 [14]): 2.34
AUC of dose-response viability curve (CAKI-1 [15]): 2.13
AUC of dose-response viability curve (SN12C [16]): 2.59
AUC of dose-response viability curve (786-O [17]): 2.48
AUC of dose-response viability curve (UO-31 [18]): 4.58
AUC of dose-response viability curve (769-P [19]): 2.66
AUC of dose-response viability curve (ACHN [20]): 1.92
AUC of dose-response viability curve (A498 [21]): 3.71

Now from value to compound, other results behind:

GI50 of drug (786-O [3]): 0.354 µM
Compound: Oc1cc(O)cc(/C=C/c2ccc(O)c(O)c2)c1 [Piceatannol] + Cc1nc(Nc2ncc(C(=O)Nc3c(C)cccc3Cl)s2)cc(N2CCN(CCO)CC2)n1 [dasatinib]
GI50 of drug (TK-10 [22]): > 10 µM
GI50 of drug (CAKI-1 [1]): 1.15 µM
GI50 of drug (SN12C [2]): > 10 µM
GI50 of drug (UO-31 [4]): > 10 µM
GI50 of drug (769-P [23]): 9.79 µM
GI50 of drug (A498 [24]): > 10 µM
minimum viability across doses (TK-10 [6]): 0.653
minimum viability across doses (CAKI-1 [7]): 0.135
minimum viability across doses (SN12C [8]): 0.603
minimum viability across doses (786-O [9]): 0.31
minimum viability across doses (UO-31 [10]): 1.24
minimum viability across doses (769-P [11]): 0.498
minimum viability across doses (ACHN [12]): 0.167
minimum viability across doses (A498 [13]): 0.903
AUC of dose-response viability curve (TK-10 [14]): 2.59
AUC of dose-response viability curve (CAKI-1 [15]): 2.07
AUC of dose-response viability curve (SN12C [16]): 2.46
AUC of dose-response viability curve (786-O [17]): 1.91
AUC of dose-response viability curve (UO-31 [18]): 5.19
AUC of dose-response viability curve (769-P [19]): 1.97
AUC of dose-response viability curve (ACHN [20]): 1.78
AUC of dose-response viability curve (A498 [21]): 3.83

GI50 of drug (786-O [3]): < 0.003 µM
GI50 of drug (ACHN [5]): < 0.003 µM
Compound: CO[C@H]1C[C@@H]2CC[C@@H](C)[C@@](O)(O2)C(=O)C(=O)N2CCCC[C@H]2C(=O)O[C@H]([C@H](C)C[C@@H]2CC[C@@H](O)[C@H](OC)C2)CC(=O)[C@H](C)/C=C(\C)[C@@H](O)[C@@H](OC)C(=O)[C@H](C)C[C@H](C)/C=C/C=C/C=C/1C [Rapamycin (Sirolimus)] + Cc1nc(Nc2ncc(C(=O)Nc3c(C)cccc3Cl)s2)cc(N2CCN(CCO)CC2)n1 [dasatinib]
GI50 of drug (CAKI-1 [1]): < 0.003 µM
GI50 of drug (SN12C [2]): < 0.003 µM
GI50 of drug (UO-31 [4]): < 0.003 µM
GI50 of drug (A498 [24]): 1.05 µM
minimum viability across doses (TK-10 [6]): 0.445
minimum viability across doses (CAKI-1 [7]): 0.256
minimum viability across doses (SN12C [8]): 0.451
minimum viability across doses (786-O [9]): 0.26
minimum viability across doses (UO-31 [10]): 0.277
minimum viability across doses (769-P [11]): 0.389
minimum viability across doses (ACHN [12]): 0.247
minimum viability across doses (A498 [13]): 0.52
AUC of dose-response viability curve (TK-10 [14]): 1.76
AUC of dose-response viability curve (CAKI-1 [15]): 1.11
AUC of dose-response viability curve (SN12C [16]): 1.68
AUC of dose-response viability curve (786-O [17]): 0.989
AUC of dose-response viability curve (UO-31 [18]): 1.15
AUC of dose-response viability curve (769-P [19]): 1.59
AUC of dose-response viability curve (ACHN [20]): 1.03
AUC of dose-response viability curve (A498 [21]): 2.01
